A short description of data set [1]: Two-component stapling: SNAr of two Cys thiolates (C-S bonds) on para-C-F of 5,10,15,20-tetrakis(pentafluorophenyl)porphyrin (2), 1 equiv; Cs2CO3 8 equiv, TCEP 4 equiv, N2. Particulars: the molecule shown is the open-chain precursor, DMSO (dry), 3.3 mM, 25.0 °C, 2.0 h.
The conditions of data set [2]: the molecule shown is the open-chain precursor; 42-membered ring.

Like-named read-outs stand apart in the source and are kept apart here.

With `CC[C@H](C)[C@H](NC(=O)[C@H](CCCCN)NC(=O)CNC(=O)[C@H](CC(C)C)NC(=O)[C@H](CC(C)C)NC(=O)[C@H](Cc1ccc(O)cc1)NC(=O)CNC(=O)[C@H](C)N)C(=O)N[C@@H](CC(N)=O)C(=O)N[C@@H](CC(C)C)C(=O)N[C@@H](CCCCN)C(=O)N[C@@H](C)C(=O)N[C@@H](CSc1c(F)c(F)c(-c2c3nc(c(-c4c(F)c(F)c(F)c(F)c4F)c4ccc([nH]4)c(-c4c(F)c(F)c(F)c(F)c4F)c4nc(c(-c5c(F)c(F)c(F)c(F)c5F)c5ccc2[nH]5)C=C4)C=C3)c(F)c1F)C(=O)N[C@@H](C)C(=O)N[C@@H](C)C(=O)N[C@@H](CC(C)C)C(=O)N[C@@H](C)C(=O)N[C@@H](CCCCN)C(=O)N[C@@H](CCCCN)C(=O)N[C@@H](CS)C(=O)N[C@@H](CC(C)C)C(N)=O`, the ring closure, conversion by HPLC in data set [1] (39-membered ring) is 72%. As to `C[C@H](N)C(=O)N[C@@H](CSc1c(F)c(F)c(-c2c3nc(c(-c4c(F)c(F)c(F)c(F)c4F)c4ccc([nH]4)c(-c4c(F)c(F)c(F)c(F)c4F)c4nc(c(-c5c(F)c(F)c(F)c(F)c5F)c5ccc2[nH]5)C=C4)C=C3)c(F)c1F)C(=O)N[C@@H](C)C(=O)N[C@@H](CS)C(=O)NCC(N)=O` [H-Ala-Cys-Ala-Cys-Gly-NH2], the ring closure, conversion by HPLC in data set [1] (24-membered ring) is 6%. As for `C[C@H](N)C(=O)N[C@@H](CSc1c(F)c(F)c(-c2c3nc(c(-c4c(F)c(F)c(F)c(F)c4F)c4ccc([nH]4)c(-c4c(F)c(F)c(F)c(F)c4F)c4nc(c(-c5c(F)c(F)c(F)c(F)c5F)c5ccc2[nH]5)C=C4)C=C3)c(F)c1F)C(=O)N[C@@H](C)C(=O)N[C@H](C(=O)NCC(=O)N[C@@H](CO)C(=O)N[C@H](C(=O)N[C@@H](CCC(N)=O)C(=O)N[C@@H](Cc1c[nH]cn1)C(=O)N[C@@H](CCC(N)=O)C(=O)N[C@@H](C)C(=O)N[C@@H](CS)C(=O)NCC(N)=O)[C@@H](C)O)[C@@H](C)O` [H-Ala-Cys-Ala-Thr-Gly-Ser-Thr-Gln-His-Gln-Ala-Cys-Gly-NH2], the ring closure, conversion by HPLC in data set [1] (48-membered ring) was 35%. With `C[C@H](N)C(=O)N[C@@H](CSc1c(F)c(F)c(-c2c3nc(c(-c4c(F)c(F)c(F)c(F)c4F)c4ccc([nH]4)c(-c4c(F)c(F)c(F)c(F)c4F)c4nc(c(-c5c(F)c(F)c(F)c(F)c5F)c5ccc2[nH]5)C=C4)C=C3)c(F)c1F)C(=O)N[C@@H](C)C(=O)N[C@H](C(=O)NCC(=O)N[C@@H](CO)C(=O)N[C@H](C(=O)N[C@@H](CCC(N)=O)C(=O)N[C@@H](Cc1c[nH]cn1)C(=O)N[C@@H](CCC(N)=O)C(=O)N[C@@H](CS)C(=O)NCC(N)=O)[C@@H](C)O)[C@@H](C)O` [H-Ala-Cys-Ala-Thr-Gly-Ser-Thr-Gln-His-Gln-Cys-Gly-NH2], the ring closure, conversion by HPLC in data set [1] (45-membered ring) worked out at 36%. For `C[C@H](N)C(=O)N[C@@H](CSc1c(F)c(F)c(-c2c3nc(c(-c4c(F)c(F)c(F)c(F)c4F)c4ccc([nH]4)c(-c4c(F)c(F)c(F)c(F)c4F)c4nc(c(-c5c(F)c(F)c(F)c(F)c5F)c5ccc2[nH]5)C=C4)C=C3)c(F)c1F)C(=O)N[C@@H](CS)C(=O)NCC(N)=O` [H-Ala-Cys-Cys-Gly-NH2], the ring closure, conversion by HPLC in data set [1] (21-membered ring) was 0%. Consider `C[C@H](N)C(=O)N[C@@H](CSc1c(F)c(F)c(-c2c3nc(c(-c4c(F)c(F)c(F)c(F)c4F)c4ccc([nH]4)c(-c4c(F)c(F)c(F)c(F)c4F)c4nc(c(-c5c(F)c(F)c(F)c(F)c5F)c5ccc2[nH]5)C=C4)C=C3)c(F)c1F)C(=O)N[C@@H](CCC(N)=O)C(=O)N[C@@H](Cc1c[nH]cn1)C(=O)N[C@@H](CCC(N)=O)C(=O)N[C@@H](CS)C(=O)NCC(N)=O` [H-Ala-Cys-Gln-His-Gln-Cys-Gly-NH2], for which, in data set [1] (30-membered ring), the ring closure, conversion by HPLC was determined as 65% and the ring closure, isolated yield was 39%. For the compound `C[C@H](N)C(=O)N[C@@H](CSc1c(F)c(F)c(-c2c3nc(c(-c4c(F)c(F)c(F)c(F)c4F)c4ccc([nH]4)c(-c4c(F)c(F)c(F)c(F)c4F)c4nc(c(-c5c(F)c(F)c(F)c(F)c5F)c5ccc2[nH]5)C=C4)C=C3)c(F)c1F)C(=O)N[C@@H](Cc1c[nH]cn1)C(=O)N[C@@H](CS)C(=O)NCC(N)=O` [H-Ala-Cys-His-Cys-Gly-NH2], in data set [1] (24-membered ring), the ring closure, conversion by HPLC is 43%.

For the compound `C[C@H](N)C(=O)N[C@@H](CSc1c(F)c(F)c(-c2c3nc(c(-c4c(F)c(F)c(F)c(F)c4F)c4ccc([nH]4)c(-c4c(F)c(F)c(F)c(F)c4F)c4nc(c(-c5c(F)c(F)c(F)c(F)c5F)c5ccc2[nH]5)C=C4)C=C3)c(F)c1F)C(=O)N[C@@H](Cc1c[nH]cn1)C(=O)N[C@@H](CCC(N)=O)C(=O)N[C@@H](CS)C(=O)NCC(N)=O` [H-Ala-Cys-His-Gln-Cys-Gly-NH2], the ring closure, conversion by HPLC in data set [1] (27-membered ring) was found to be 65%. `C[C@H](N)C(=O)N[C@@H](CSc1c(F)c(F)c(-c2c3nc(c(-c4c(F)c(F)c(F)c(F)c4F)c4ccc([nH]4)c(-c4c(F)c(F)c(F)c(F)c4F)c4nc(c(-c5c(F)c(F)c(F)c(F)c5F)c5ccc2[nH]5)C=C4)C=C3)c(F)c1F)C(=O)N[C@@H](CO)C(=O)N[C@H](C(=O)N[C@@H](CCC(N)=O)C(=O)N[C@@H](Cc1c[nH]cn1)C(=O)N[C@@H](CCC(N)=O)C(=O)N[C@@H](CS)C(=O)NCC(N)=O)[C@@H](C)O` [H-Ala-Cys-Ser-Thr-Gln-His-Gln-Cys-Gly-NH2]: in data set [1] (36-membered ring), the ring closure, conversion by HPLC came out at 56% and the ring closure, isolated yield was 24%. Consider `C[C@H](N)C(=O)N[C@@H](CSc1c(F)c(F)c(-c2c3nc(c(-c4c(F)c(F)c(F)c(F)c4F)c4ccc([nH]4)c(-c4c(F)c(F)c(F)c(F)c4F)c4nc(c(-c5c(F)c(F)c(F)c(F)c5F)c5ccc2[nH]5)C=C4)C=C3)c(F)c1F)C(=O)N[C@H](C(=O)N[C@@H](CCC(N)=O)C(=O)N[C@@H](Cc1c[nH]cn1)C(=O)N[C@@H](CCC(N)=O)C(=O)N[C@@H](CS)C(=O)NCC(N)=O)[C@@H](C)O` [H-Ala-Cys-Thr-Gln-His-Gln-Cys-Gly-NH2], for which, in data set [1] (33-membered ring), the ring closure, conversion by HPLC turned out to be 65% and the ring closure, isolated yield was 25%. Consider `C[C@H](N)C(=O)N[C@@H](CSc1c(F)c(F)c(-c2c3nc(c(-c4c(F)c(F)c(F)c(F)c4F)c4ccc([nH]4)c(-c4c(F)c(F)c(F)c(F)c4F)c4nc(c(-c5c(F)c(F)c(F)c(F)c5F)c5ccc2[nH]5)C=C4)C=C3)c(F)c1F)C(=O)N[C@H](C(=O)NCC(=O)N[C@@H](CO)C(=O)N[C@H](C(=O)N[C@@H](CCC(N)=O)C(=O)N[C@@H](Cc1c[nH]cn1)C(=O)N[C@@H](CCC(N)=O)C(=O)N[C@@H](CS)C(=O)NCC(N)=O)[C@@H](C)O)[C@@H](C)O` [H-Ala-Cys-Thr-Gly-Ser-Thr-Gln-His-Gln-Cys-Gly-NH2], for which, in data set [1] (42-membered ring), the ring closure, conversion by HPLC was found to be 46% and the ring closure, isolated yield came out at 18%. For `C[C@H](N)C(=O)N[C@@H](CSc1c(F)c(F)c(-c2c3nc(c(-c4c(F)c(F)c(F)c(F)c4F)c4ccc([nH]4)c(-c4c(F)c(F)c(F)c(F)c4F)c4nc(c(-c5c(F)c(F)c(F)c(F)c5F)c5ccc2[nH]5)C=C4)C=C3)c(F)c1F)C(=O)N[C@H](C(=O)N[C@@H](Cc1c[nH]cn1)C(=O)NCC(=O)N[C@@H](CCC(N)=O)C(=O)N[C@H](C(=O)N[C@@H](CCC(N)=O)C(=O)N[C@@H](CO)C(=O)N[C@@H](CS)C(=O)NCC(N)=O)[C@@H](C)O)[C@@H](C)O` [H-Ala-Cys-Thr-His-Gly-Gln-Thr-Gln-Ser-Cys-Gly-NH2] the same measures were 47% and 10%. Turning to `C[C@H](N)C(=O)N[C@@H](CSc1c(F)c(F)c(-c2c3nc(c(-c4c(F)c(F)c(F)c(F)c4F)c4ccc([nH]4)c(-c4c(F)c(F)c(F)c(F)c4F)c4nc(c(-c5c(F)c(F)c(F)c(F)c5F)c5ccc2[nH]5)C=C4)C=C3)c(F)c1F)C(=O)N[C@H](C(=O)N[C@@H](CO)C(=O)N[C@H](C(=O)N[C@@H](CCC(N)=O)C(=O)N[C@@H](Cc1c[nH]cn1)C(=O)N[C@@H](CCC(N)=O)C(=O)N[C@@H](CS)C(=O)NCC(N)=O)[C@@H](C)O)[C@@H](C)O` [H-Ala-Cys-Thr-Ser-Thr-Gln-His-Gln-Cys-Gly-NH2], in data set [1] (39-membered ring), the ring closure, conversion by HPLC turned out to be 50%.

`CC[C@H](C)[C@H](NC(=O)[C@H](Cc1ccc(O)cc1)NC(=O)CNC(=O)[C@@H](NC(=O)[C@@H](NC(=O)[C@H](CSc1c(F)c(F)c(-c2c3nc(c(-c4c(F)c(F)c(F)c(F)c4F)c4ccc([nH]4)c(-c4c(F)c(F)c(F)c(F)c4F)c4nc(c(-c5c(F)c(F)c(F)c(F)c5F)c5ccc2[nH]5)C=C4)C=C3)c(F)c1F)NC(=O)[C@@H](N)CC(N)=O)C(C)C)C(C)C)C(=O)NCC(=O)N[C@@H](CCC(=O)O)C(=O)N[C@@H](CCCNC(=N)N)C(=O)N[C@@H](CS)C(=O)N[C@@H](CCC(N)=O)C(N)=O` [H-Asn-Cys-Val-Val-Gly-Tyr-Ile-Gly-Glu-Arg-Cys-Gln-NH2]: the ring closure, conversion by HPLC in data set [1] (45-membered ring) was found to be 36%. Take `CC(C)C[C@H](NC(=O)[C@H](C)NC(=O)[C@@H](NC(=O)[C@H](CCC(=O)O)NC(=O)[C@@H]1CCCN1C(=O)[C@H](C)NC(=O)[C@H](CCCCN)NC(=O)[C@@H](N)CSc1c(F)c(F)c(-c2c3nc(c(-c4c(F)c(F)c(F)c(F)c4F)c4ccc([nH]4)c(-c4c(F)c(F)c(F)c(F)c4F)c4nc(c(-c5c(F)c(F)c(F)c(F)c5F)c5ccc2[nH]5)C=C4)C=C3)c(F)c1F)[C@@H](C)O)C(=O)N[C@@H](CS)C(N)=O` [H-Cys-Lys-Ala-Pro-Glu-Thr-Ala-Leu-Cys-NH2]: in data set [2], the ring closure, conversion by HPLC stood at 44%.

These data come from paper PMC10946732.
